From US20190031857A1, “BLACK-COLORED POLYAMIDE COMPOSITION AND PRODUCTION AND USE THEREOF” (BASF SE, priority 2016, published 2019) come the findings set out here.

Data set [1] in a line: Incorporation and coloring of the polymer by extrusion. As to conditions: attempted bulk coloring of polyethylene, above 160° C. Here is the method: 98 parts polyethylene (Grade M80064 from Sabic) were premixed in a tumbling mixer with 2 parts Solvent Black 28 (Orasol Black 045 from BASF) for 10 minutes and extruded in a twin-shaft extruder having a diameter of 18 mm and an L/D ratio of 44 at barrel temperature 210° C. A significant odor developed from the extruder nozzle; the polymer strands had expanded in the foam mold. The production of plaques by means of injection molding machines was not possible.
99.9 parts polyamide PA6 (Ultramid B3S from BASF) were premixed in a tumbling mixer with 0.1 part Solvent Violet 13 (Orasol Blue 640 from BASF) for 10 minutes and then extruded and pelletized using a twin-shaft extruder having a diameter of 18 mm and an L/D ratio of 44 at barrel temperature 260° C. For this purpose, the natural-colored polyamide pellets were dried beforehand in a drying oven at 100° C. for 4 hours, such that the moisture content was below 0.1%. For this purpose, the moisture content was determined by means of a thermal balance.

Data set [2] in a line: Solubility of Solvent Black 28 in solvents. It counts as physicochemical. Here is the method:
The chromium complex dye b) used in accordance with the invention is available under the name Solvent Black 28 (CAS no.: 12237-23-9, C.I. Solvent Black 28). A commercially available product is Orasol Black 045 from BASF SE. […] Solubility at 20° C. in ethanol is about 10 g/L and in methyl ethyl ketone about 400 g/L.

Solvent Black 28: in data set [1], the “thermal stability in bulk coloring of polyethylene” value is on record as “entirely inadequate thermal stability”. The Solubility in ethanol entry in data set [2] (20° C., ethanol) is on record as “about 10 g/L”. In addition, in data set [2] (20° C., methyl ethyl ketone), the “Solubility in methyl ethyl ketone” value is listed as “about 400 g/L”. In data set [2] (water), the Water solubility entry is “almost water-insoluble”.
